SMILES strings stand for the structures. Converted amounts (≈) assume the structure as drawn. Where two headings read alike, the source gives them in different places.

Series [1] relates to human tumor cell lines. The series can be described thus: NCI in vitro screen, mean over all cell lines tested. The conditions noted are these: Homo sapiens, read-out: Cytotoxicity log GI50, Mean Value (converted).
Text: (§1) (Activity is defined as log GI50<−4 where GI50 is the molar concentration causing 50% cell growth inhibition).
Series [2] has as its system BT-549. In words: NCI in vitro disease-oriented tumor cells screen. The class given is cell-based, human. The conditions noted are these: Homo sapiens; Breast Cancer BT-549; Table 2; average of at least two testings; read-out: Cytotoxicity log GI50 (converted).
Text: as §1
Series [3] relates to SK-MEL-2. In words: NCI in vitro disease-oriented tumor cells screen. The class given is cell-based, human. The conditions noted are these: Homo sapiens; Melanoma SK-MEL-2; Table 2; average of at least two testings; read-out: Cytotoxicity log GI50 (converted).
Text: as §1
The subject of series [4] is M14. The series can be described thus: NCI in vitro disease-oriented tumor cells screen. The class given is cell-based, human. The conditions noted are these: Homo sapiens; Melanoma M14; Table 2; average of at least two testings; read-out: Cytotoxicity log GI50 (converted).
Text: as §1
Series [5] concerns MALME-3M. In words: NCI in vitro disease-oriented tumor cells screen. The class given is cell-based, human. The conditions noted are these: Homo sapiens; Melanoma MALME-3M; Table 2; average of at least two testings; read-out: Cytotoxicity log GI50 (converted).
Text: as §1
Series [6] relates to MDA-MB-435. In words: NCI in vitro disease-oriented tumor cells screen. The class given is cell-based, human. The settings on record: Homo sapiens; Breast Cancer MDA-MB-435; Table 2 (numbering of Examples 1-13); average of at least two testings; read-out: Cytotoxicity log GI50 (converted).
Text: as §1
For series [7], the system named is LOX IMVI. In words: NCI in vitro disease-oriented tumor cells screen. The class given is cell-based, human. The conditions noted are these: Homo sapiens; Melanoma LOX IMVI; Table 2 (numbering of Examples 1-13); average of at least two testings; read-out: Cytotoxicity log GI50 (converted).
Text: as §1
The test system of series [8] is HS 578T. The series can be described thus: NCI in vitro disease-oriented tumor cells screen. The conditions noted are these: Homo sapiens; Breast Cancer HS 578T; Table 2; average of at least two testings; read-out: Cytotoxicity log GI50 (converted). The class given is cell-based, human.
Text: as §1
Series [9] has as its system SK-MEL-5. In words: NCI in vitro disease-oriented tumor cells screen. The class given is cell-based, human. The settings on record: Homo sapiens; Melanoma SK-MEL-5; Table 2 (numbering of Examples 1-13); average of at least two testings; read-out: Cytotoxicity log GI50 (converted).
Text: as §1
Series [10] concerns OVCAR-8. The series can be described thus: NCI in vitro disease-oriented tumor cells screen. The class given is cell-based, human. The conditions noted are these: Homo sapiens; Ovarian Cancer OVCAR-8; Table 2; average of at least two testings; read-out: Cytotoxicity log GI50 (converted).
Text: as §1
Series [11] concerns OVCAR-3. In words: NCI in vitro disease-oriented tumor cells screen. The settings on record: Homo sapiens; Ovarian Cancer OVCAR-3; Table 2 (numbering of Examples 1-13); average of at least two testings; read-out: Cytotoxicity log GI50 (converted). The class given is cell-based, human.
Text: as §1
The subject of series [12] is MDA-N. The series can be described thus: NCI in vitro disease-oriented tumor cells screen. The conditions noted are these: Homo sapiens; Breast Cancer MDA-N; Table 2 (numbering of Examples 1-13); average of at least two testings; read-out: Cytotoxicity log GI50 (converted). The class given is cell-based, human.
Text: as §1
Series [13] deals with UACC-62. In words: NCI in vitro disease-oriented tumor cells screen. The class given is cell-based, human. The settings on record: Homo sapiens; Melanoma UACC-62; Table 2; average of at least two testings; read-out: Cytotoxicity log GI50 (converted).
Text: as §1
Series [14] relates to NCI-H23. In words: NCI in vitro disease-oriented tumor cells screen. The class given is cell-based, human. The settings on record: Homo sapiens; Non-Small Cell Lung Cancer NCI-H23; Table 2 (numbering of Examples 1-13); average of at least two testings; read-out: Cytotoxicity log GI50 (converted).
Text: as §1
The test system of series [15] is human tumor cell lines.
Text: as §1
Series [16] has as its system UACC-257. In words: NCI in vitro disease-oriented tumor cells screen. The class given is cell-based, human. The settings on record: Homo sapiens; Melanoma UACC-257; Table 2; average of at least two testings; read-out: Cytotoxicity log GI50 (converted).
Text: as §1
Series [17] concerns HL-60(TB). The series can be described thus: NCI in vitro disease-oriented tumor cells screen. The class given is cell-based, human. The settings on record: Homo sapiens; Leukemia HL-60(TB); Table 2; average of at least two testings; read-out: Cytotoxicity log GI50 (converted).
Text: as §1
Series [18] has as its system SK-MEL-28. In words: NCI in vitro disease-oriented tumor cells screen. The class given is cell-based, human. The settings on record: Homo sapiens; Melanoma SK-MEL-28; Table 2; average of at least two testings; read-out: Cytotoxicity log GI50 (converted).
Text: as §1
Series [19] relates to NCI-H522. In words: NCI in vitro disease-oriented tumor cells screen. The class given is cell-based, human. The conditions noted are these: Homo sapiens; Non-Small Cell Lung Cancer NCI-H522; Table 2; average of at least two testings; read-out: Cytotoxicity log GI50 (converted).
Text: as §1
For series [20], the system named is KB cells. The settings on record: cited from earlier work; for ED50: KB cells, background, numbering of Examples 1-13.
Series [21] deals with KB cells. The series can be described thus: Preliminary KB cell assay (cytotoxicity). The class given is cell-based. The settings on record: Homo sapiens, numbering of Examples 14-16, read-out: ED50 (the source's name). As for the experimental part:
Many anthraquinones, including mitoxantrone (1), show antineoplastic activity (Zee-Cheng, R. Y.; Podrebarac, E. G; Menon, C. S.; Cheng, C. C. J. Med. Chem. 1979, 22, 501-505). In addition, the natural product 2-acetyl-4H, 9H-naphtho[2,3-b]furan-4,9-dione (2) isolated from Tabebuia cassinoids (Lam.) DC.
The unsubstituted (3), two mono-acetyl (5, 6), and two di-acetyl (9, 10) derivatives were tested for cytotoxicity in a preliminary KB cell assay.

In the case of `CC(O)c1cc2c(s1)C(=O)c1sccc1C2=O` (centres unmarked) [Compound 20, 2-(1′-Hydroxyethyl)-4,8-dihydrobenzo[1,2-b:5,4-b′]dithiophene-4,8-dione], the melting point lay within 170 to 172 °C. Moreover, the GI50 in series [1] is 135 nM. Besides, the GI50 in series [2] is 34.7 nM. For the same molecule, the GI50 in series [3] was 30.9 nM. Further, the GI50 in series [4] was 14.8 nM. Also, the GI50 in series [5] was 19.1 nM. In addition, the GI50 in [6] was 16.2 nM. Moreover, the 50% growth inhibitory concentration (GI50) in [7] was 24 nM. Also, the GI50 in [8] is 57.5 nM. Moreover, the GI50 in series [9] was 13.5 nM. The 50% growth inhibitory concentration (GI50) in series [10] was 162 nM. For the same molecule, the GI50 in series [11] was 117 nM. Besides, in series [12], the GI50 is 18.6 nM. The GI50 in [13] is 22.4 nM. The 50% growth inhibitory concentration (GI50) in [14] is 15.5 nM. In addition, the “overall cytotoxicity / potency (in words)” value in series [15] is “excellent overall cytotoxicity”. In [16], the GI50 was 18.2 nM. Besides, the GI50 in [17] was 69.2 nM. Besides, the 50% growth inhibitory concentration (GI50) in series [18] was 38.9 nM. In series [19], the GI50 was 123 nM.
As to `CC(=O)c1cc2c(o1)C(=O)c1ccccc1C2=O` [Compound 2, 2-acetyl-4H, 9H-naphtho[2,3-b]furan-4,9-dione], the EC50 in [20] (KB cell culture assay, numbering of Examples 14-16, read-out: ED50 (the source's name)) is 4200 nM. Further, in series [20], the ED50 was 2.0 µg/mL (≈ 8.33 µM).
`CC(=O)OC(C)c1cc2c(s1)C(=O)c1ccsc1C2=O` (centres unmarked) [Compound 11, 2-(1′-Acetoxyethyl)-4,8-dihydrobenzo[1,2-b:4,5-b′]dithiophene-4,8-dione]: the 50% growth inhibitory concentration (GI50) in series [1] is 39.8 nM; in [2], 45.7 nM; in series [3], 26.3 nM; in series [4], 12.9 nM; in series [5] it was under 10 nM; in series [6], under 10 nM. For the same molecule, the concentration for 50% growth inhibition (GI50) was under 10 nM in [7]; 155 nM in [8]; 13.5 nM in series [9]; 36.3 nM in series [10]; under 10 nM in series [11]; under 10 nM in series [12]. Also, the GI50 in series [13] was 17 nM; in series [14], 11.2 nM; in series [16], 25.1 nM; in series [17] it was under 10 nM; in series [18] it was 19.1 nM; in series [19] it was 148 nM. Moreover, in series [15] (human), the “Cytotoxicity log GI50, Mean Value” is reported as −7.40 M.
Consider `CC(O)c1cc2c(s1)C(=O)c1c(C(C)O)csc1C2=O` (centres unmarked) [Compound 14, 2,7-Bis(1′-hydroxyethyl)-4,8-dihydrobenzo [1,2-b:4,5-b′]dithiophene-4,8-dione], for which the GI50 in series [1] was 148 nM; in series [2], 162 nM; in series [3], 112 nM; in [4], 57.5 nM; in series [5] it was 27.5 nM; in series [6], 17.8 nM. In addition, the 50% growth inhibitory concentration (GI50) is 55 nM in series [7]; 316 nM in series [8]; 12.6 nM in series [9]; 219 nM in series [10]; 11.7 nM in series [11]; 20.9 nM in series [12]. Moreover, the GI50 was 32.4 nM in series [13]; 33.9 nM in [14]; 61.7 nM in series [16]; 11.2 nM in series [17]; 186 nM in [18]; 302 nM in [19]. Also, the “overall cytotoxicity / potency (in words)” value in series [15] is given as “overall cytotoxicity comparable to the monosubstituted compounds”.
For `O=C1c2ccccc2C(=O)c2sccc21` [Compound 3, naphtho[2,3-b]thiophene-4,9-dione, reference compound], the EC50 in series [21] turned out to be 6500 nM.
For the molecule `O=C1c2c(O)ccc(O)c2C(=O)c2c(NCCNCCO)ccc(NCCNCCO)c21` [Compound 1, mitoxantrone], the ED50 in series [20] was 1.0 µg/mL (≈ 2.25 µM).
`O=C1c2ccccc2C(=O)c2sccc21` [Compound 4, naphtho[2,3-b]thiophene-4,9-dione]: the ED50 in series [20] was 1.4 µg/mL (≈ 6.53 µM).
The molecule `CC(=O)OC(C)c1cc2c(s1)C(=O)c1sccc1C2=O` (centres unmarked) [Compound 21, 2-(1′-Acetoxyethyl)-4,8-dihydrobenzo[1,2-b:5,4-b′]dithiophene-4,8-dione] displayed a melting point of 165 to 166 °C. In series [1], the 50% growth inhibitory concentration (GI50) was 794 nM. The concentration for 50% growth inhibition (GI50) in series [2] is 282 nM. The GI50 in series [3] is 417 nM. Besides, the GI50 in series [4] was 162 nM. For the same molecule, the GI50 in series [5] is 120 nM. The 50% growth inhibitory concentration (GI50) in [6] is 182 nM. In addition, the GI50 in series [7] is 209 nM. The concentration for 50% growth inhibition (GI50) in series [8] is 513 nM. The GI50 in series [9] is 107 nM. Further, the 50% growth inhibitory concentration (GI50) in [10] was 1410 nM. The GI50 in series [11] is 490 nM. The concentration for 50% growth inhibition (GI50) in series [12] is 19.1 nM. The GI50 in [13] was 1380 nM. Besides, the GI50 in [14] was 219 nM. Further, the “overall cytotoxicity / potency (in words)” value in series [15] is “among the least active”. For the same molecule, in [16], the GI50 is 214 nM. For the same molecule, the GI50 in series [17] was 1740 nM. Also, in series [18], the GI50 is 646 nM. The GI50 in [19] is 871 nM.

The values above are taken from patent US6337346B1 (University of North Carolina at Chapel Hill, priority 1998, dated 2002).
